{"source": "patent US20220125778A1", "about": "(priority 2019, published 2022)", "target": "Purified bacterial β-glucuronidases (Purified GUS) (UniProt P05804)", "sequence (P05804 whole entry)": "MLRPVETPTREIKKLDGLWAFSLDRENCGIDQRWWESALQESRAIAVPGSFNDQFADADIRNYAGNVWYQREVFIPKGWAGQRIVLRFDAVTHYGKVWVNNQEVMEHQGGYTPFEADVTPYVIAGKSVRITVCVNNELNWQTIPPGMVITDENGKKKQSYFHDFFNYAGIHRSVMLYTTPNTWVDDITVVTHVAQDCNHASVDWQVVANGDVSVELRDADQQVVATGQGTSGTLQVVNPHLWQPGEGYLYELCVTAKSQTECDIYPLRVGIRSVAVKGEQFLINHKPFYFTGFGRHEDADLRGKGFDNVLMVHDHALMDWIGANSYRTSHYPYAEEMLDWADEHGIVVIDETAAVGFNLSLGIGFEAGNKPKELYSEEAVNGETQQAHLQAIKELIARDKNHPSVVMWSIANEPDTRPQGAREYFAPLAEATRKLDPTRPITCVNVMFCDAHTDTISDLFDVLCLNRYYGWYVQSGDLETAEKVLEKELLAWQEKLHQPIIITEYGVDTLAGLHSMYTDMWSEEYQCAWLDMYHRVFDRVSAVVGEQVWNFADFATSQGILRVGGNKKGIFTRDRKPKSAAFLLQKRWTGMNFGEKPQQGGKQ", "type": "biochemical", "details": "read-out: Purified GUS Orignial IC50", "data": [{"smiles": "Cc1cc(C)c2[nH]c(=O)c(CN(CCO)C(=O)Cc3ccccc3Cl)cc2c1", "note": "[Ex. 8, 2-(2-chlorophenyl)-N-[(6,8-dimethyl-2-oxo-1H-quinolin-3-yl)methyl]-N-(2-hydroxyethyl)acetamide]", "values": [{"measurement": "IC50", "value": 570, "unit": "nM"}]}, {"smiles": "COc1ccc(Br)c(CC(=O)N(CCO)Cc2cc3cc(C)cc(C)c3[nH]c2=O)c1", "note": "[Ex. 12, 2-(2-bromo-5-methoxy-phenyl)-N-[(6,8-dimethyl-2-oxo-1H-quinolin-3-yl)methyl]-N-(2-hydroxyethyl)acetamide]", "values": [{"measurement": "IC50", "value": 580, "unit": "nM"}]}, {"smiles": "Cc1cc(C)c2[nH]c(=O)c(CN(CCO)C(=O)Cc3ccccc3Br)cc2c1", "note": "[Ex. 4, 2-(2-bromophenyl)-N-[(6,8-dimethyl-2-oxo-1H-quinolin-3-yl)methyl]-N-(2-hydroxyethyl)acetamide]", "values": [{"measurement": "IC50", "value": 920, "unit": "nM"}]}]}
